What all share (assay type): cell-based
Details in all cases: component A (XP or YS) alone

Assay [1] concerns Clostridium perfringens ATCC13124 (产气荚膜梭状芽孢杆菌ATCC13124).
The subject of assay [2] is Providencia stuartii 57 (斯氏普罗威登斯菌57). The assay is described as follows: Antibacterial action (MIC, FICI) against Providencia stuartii 57 (Table 12).
The subject of assay [3] is Escherichia coli ATCC25922 (大肠杆菌ATCC25922). Briefly: Antibacterial action (MIC, FICI) against Escherichia coli ATCC25922 (Table 7).
In assay [4] the test system is Shigella flexneri 2aEW-10 (福氏志贺氏菌2aEW-10). The assay is described as follows: Antibacterial action (MIC, FICI) against Shigella flexneri 2aEW-10 (Table 15).
The test system of assay [5] is Stenotrophomonas maltophilia NCTC 13637 (嗜麦芽窄食单胞菌NCTC 13637). Briefly: Antibacterial action (MIC, FICI) against Stenotrophomonas maltophilia NCTC 13637 (Table 18).
For assay [6], the system named is Streptococcus intermedius ATCC27335 (中间链球菌ATCC27335). Briefly: Antibacterial action (MIC, FICI) against Streptococcus intermedius ATCC27335 (Table 20).
In assay [7] the test system is Serratia marcescens IFO 3736 (黏质沙雷氏菌IFO 3736). Briefly: Antibacterial action (MIC, FICI) against Serratia marcescens IFO 3736 (Table 10).
Assay [8] deals with Propionibacterium acnes ATCC11828 (痤疮丙酸杆菌ATCC11828). Briefly: Antibacterial action (MIC, FICI) against Propionibacterium acnes ATCC11828 (Table 21).
Assay [9] has as its system Micrococcus lysodeikticus 2665 (溶壁微球菌2665). Briefly: Antibacterial action (MIC, FICI) against Micrococcus lysodeikticus 2665 (Table 4).
The test system of assay [10] is Klebsiella pneumoniae NCTC 9632 (肺炎克雷伯菌NCTC 9632). The assay is described as follows: Antibacterial action (MIC, FICI) against Klebsiella pneumoniae NCTC 9632 (Table 9).

Take `CCOC(=O)C1=C[C@@H](OC(CC)CC)[C@H](NC(C)=O)[C@@H](NC(CC(=O)O)C(=O)O)C1` (mixture of isomers) [化合物4P, ((1S,5R,6R)-6-乙酰氨基-3-(乙氧基羰基)-5-(戊-3-基氧基)环己-3-烯-1-基)-DL-天门冬氨酸]: the MIC_A in [1] came to 36 ng/mL; in assay [2] it was 34 ng/mL; in assay [3] it was 17 ng/mL.
On to `CCC(CC)O[C@@H]1C=C(C(=O)O)C[C@H](NC(C)=O)[C@H]1N` [化合物2S, (3R,4R,5S)-5-乙酰氨基-4-氨基-3-(戊-3-基氧基)环己-1-烯-1-羧酸], for which the MIC_A in assay [4] is listed as 345 ng/mL; in assay [5] it was 879 ng/mL; in assay [3], 720 ng/mL; in assay [6], 493 ng/mL.
For `CCOC(=O)C1=C[C@@H](O)[C@H](N)[C@@H](N)C1` [化合物14S, 乙基(3R,4R,5S)-4,5-二氨基-3-羟基环己-1-烯-1-羧酸酯], the MIC_A in [7] came out at 1102 ng/mL; in assay [8] it was 701 ng/mL.
For the compound `CCOC(=O)C1=C[C@@H](OC(C)CC)[C@H](NC(C)=O)[C@@H](N)C1` (stereo partly drawn) [化合物19S, 乙基(3R,4R,5S)-4-乙酰氨基-5-氨基-3-(sec-丁氧基)环己-1-烯-1-羧酸酯], the results for the MIC_A in [7], in assay [2] and in assay [6] were 1016 ng/mL, 823 ng/mL and 310 ng/mL, respectively.
On to `CCOC(=O)C1=C[C@@H](OC(CC)CC)[C@H](NC(C)=O)[C@@H](NC(CC(=O)O)C(=O)O)C1` (mixture of isomers) [化合物1P, ((1S,5R,6R)-6-乙酰氨基-3-(乙氧基羰基)-5-(戊-3-基氧基)环己-3-烯-1-基)-DL-天门冬氨酸], for which the MIC_A is recorded as 4 ng/mL in assay [9], 12 ng/mL in assay [1], 13 ng/mL in assay [2] and 18 ng/mL in assay [8].
Turning to `CCOC(=O)C1=C[C@@H](O)[C@H](NC(C)=O)[C@@H](N)C1` [化合物13S, 乙基(3R,4R,5S)-4-乙酰氨基-5-氨基-3-羟基环己-1-烯-1-羧酸酯], the MIC_A in assay [9] is on record as 914 ng/mL; in assay [2], 1021 ng/mL; in [6] it was 655 ng/mL; in assay [10], 1081 ng/mL.
For `CCOC(=O)C1=C[C@@H](OC(CC)CC)[C@H](NC(C)=O)[C@@H](N)C1` [化合物1S, 乙基(3R,4R,5S)-4-乙酰氨基-5-氨基-3-(戊-3-基氧基)环己-1-烯-1-羧酸酯], the MIC_A in assay [9] stood at 300 ng/mL; in assay [1], 504 ng/mL; in assay [2], 1178 ng/mL; in assay [8], 633 ng/mL.
Regarding `CCC(CC)O[C@@H]1C=C(C(=O)O)C[C@H](N)[C@H]1N` [化合物11S, (3R,4R,5S)-4,5-二氨基-3-(戊-3-基氧基)环己-1-烯-1-羧酸], the MIC_A in [1] amounted to 482 ng/mL; in assay [5], 774 ng/mL; in assay [2], 1106 ng/mL; in assay [3], 659 ng/mL; in assay [10] it was 650 ng/mL.
Consider `CCC(CC)O[C@H]1C=C(C(=O)O)C[C@@H](N)[C@@H]1N` [化合物16S, (3S,4S,5R)-4,5-二氨基-3-(戊-3-基氧基)环己-1-烯-1-羧酸], for which the MIC_A in assay [10] is 1179 ng/mL.
Regarding `CCOC(=O)C1=C[C@H](OC(CC)CC)[C@@H](NC(C)=O)[C@H](N)C1` [化合物7S, 乙基(3S,4S,5R)-4-乙酰氨基-5-氨基-3-(戊-3-基氧基)环己-1-烯-1-羧酸酯], the MIC_A in [4] was 1145 ng/mL; in assay [8], 461 ng/mL; in assay [3], 484 ng/mL; in assay [10], 376 ng/mL.
Regarding `CCOC(=O)C1=C[C@@H](OC(CC)CC)[C@@H](NC(C)=O)[C@@H](NC(CC(=O)O)C(=O)O)C1` (mixture of isomers) [化合物8P, ((1S,5R,6S)-6-乙酰氨基-3-(乙氧基羰基)-5-(戊-3-基氧基)环己-3-烯-1-基)-DL-天门冬氨酸], the MIC_A in assay [1] is recorded as 28 ng/mL; in assay [5] it was 41 ng/mL.
On to `CCOC(=O)C1=C[C@@H](OC(CC)CC)[C@H](N)[C@@H](N)C1` [化合物12S, 乙基(3R,4R,5S)-4,5-二氨基-3-(戊-3-基氧基)环己-1-烯-1-羧酸酯], for which the figures for the MIC_A in assay [9], in [7] and in assay [6] were 1027 ng/mL, 691 ng/mL and 406 ng/mL, respectively.
For the compound `CCOC(=O)C1=C[C@@H](OC(C)C)[C@H](NC(C)=O)[C@@H](NC(CC(=O)O)C(=O)O)C1` (mixture of isomers) [化合物20P, ((1S,5R,6R)-6-乙酰氨基-3-(乙氧基羰基)-5-异丙氧基环己-3-烯-1-基)-DL-天门冬氨酸], the MIC_A in assay [5] is 36 ng/mL; in [8], 18 ng/mL; in assay [3], 19 ng/mL.
In the case of `CCOC(=O)C1=C[C@H](OC(CC)CC)[C@H](NC(C)=O)[C@@H](N)C1` [化合物6S, 乙基(3S,4R,5S)-4-乙酰氨基-5-氨基-3-(戊-3-基氧基)环己-1-烯-1-羧酸酯], the MIC_A came out at 556 ng/mL in [9], 473 ng/mL in assay [5], 445 ng/mL in assay [7] and 521 ng/mL in assay [6].
As to `CCOC(=O)C1=C[C@@H](OC(CC)CC)[C@H](NC(C)=O)[C@@H](N)C1` [化合物4S, 乙基(3R,4R,5S)-4-乙酰氨基-5-氨基-3-(戊-3-基氧基)环己-1-烯-1-羧酸酯], the MIC_A in assay [1] is 762 ng/mL; in [2] it was 581 ng/mL; in assay [3], 456 ng/mL.
As for `CCOC(=O)C1=C[C@@H](O)[C@H](NC(C)=O)[C@@H](NC(CC(=O)O)C(=O)O)C1` (mixture of isomers) [化合物13P, ((1S,5R,6R)-6-乙酰氨基-3-(乙氧基羰基)-5-羟基环己-3-烯-1-基)-DL-天门冬氨酸], the MIC_A in [9] came out at 27 ng/mL; in assay [2] it was 54 ng/mL; in [6], 22 ng/mL; in assay [10] it was 55 ng/mL.
For the compound `CCC(CC)O[C@@H]1C=C(C(=O)O)C[C@H](NC(C)=O)[C@H]1NC(CC(=O)O)C(=O)O` (mixture of isomers) [化合物2P, ((1R,2R,6S)-6-乙酰氨基-4-羧基-2-(戊-3-基氧基)环己-3-烯-1-基)-DL-天门冬氨酸], the MIC_A amounted to 22 ng/mL in assay [4], 13 ng/mL in assay [5], 45 ng/mL in assay [3] and 10 ng/mL in [6].
For the compound `CCOC(=O)C1=C[C@@H](O)[C@H](N)[C@@H](NC(CC(=O)O)C(=O)O)C1` (mixture of isomers) [化合物14P, ((1S,5R,6R)-6-氨基-3-(乙氧基羰基)-5-羟基环己-3-烯-1-基)-DL-天门冬氨酸], the MIC_A in [7] amounted to 46 ng/mL; in [8], 18 ng/mL.
On to `CCOC(=O)C1=C[C@H](OC(CC)CC)[C@@H](N)[C@H](NC(CC(=O)O)C(=O)O)C1` (mixture of isomers) [化合物17P, ((1R,5S,6S)-6-氨基-3-(乙氧基羰基)-5-(戊-3-基氧基)环己-3-烯-1-基)-DL-天门冬氨酸], for which the MIC_A in [4] stood at 30 ng/mL; in assay [1] it was 21 ng/mL; in [5] it was 16 ng/mL; in [8], 27 ng/mL; in [3], 22 ng/mL.
Consider `CCC(CC)O[C@H]1C=C(C(=O)O)C[C@@H](NC(CC(=O)O)C(=O)O)[C@@H]1N` (mixture of isomers) [化合物16P, ((1R,5S,6S)-6-氨基-3-羧基-5-(戊-3-基氧基)环己-3-烯-1-基)-DL-天门冬氨酸], for which the MIC_A in assay [10] is 15 ng/mL.
`CCOC(=O)C1=C[C@H](OC(CC)CC)[C@H](NC(C)=O)[C@@H](NC(CC(=O)O)C(=O)O)C1` (mixture of isomers) [化合物6P, ((1S,5S,6R)-6-乙酰氨基-3-(乙氧基羰基)-5-(戊-3-基氧基)环己-3-烯-1-基)-DL-天门冬氨酸]: the MIC_A in [9] is listed as 26 ng/mL; in [5], 17 ng/mL; in assay [7], 7 ng/mL; in [6] it was 28 ng/mL.
Turning to `CCOC(=O)C1=C[C@@H](OC(CC)CC)[C@@H](NC(C)=O)[C@@H](N)C1` [化合物8S, 乙基(3R,4S,5S)-4-乙酰氨基-5-氨基-3-(戊-3-基氧基)环己-1-烯-1-羧酸酯], the MIC_A in assay [1] worked out at 483 ng/mL; in [5], 800 ng/mL.
On to `CCOC(=O)C1=C[C@@H](OC(C)CC)[C@H](NC(C)=O)[C@@H](NC(CC(=O)O)C(=O)O)C1` (mixture of isomers) [化合物19P, ((1S,5R,6R)-6-乙酰氨基-5-(sec-丁氧基)-3-(乙氧基羰基)环己-3-烯-1-基)-DL-天门冬氨酸], for which the MIC_A in assay [7] stood at 13 ng/mL; in [2] it was 17 ng/mL; in [6], 11 ng/mL.
As to `CCOC(=O)C1=C[C@H](OC(CC)CC)[C@@H](NC(C)=O)[C@H](NC(CC(=O)O)C(=O)O)C1` (mixture of isomers) [化合物7P, ((1R,5S,6S)-6-乙酰氨基-3-(乙氧基羰基)-5-(戊-3-基氧基)环己-3-烯-1-基)-DL-天门冬氨酸], the MIC_A was found to be 60 ng/mL in assay [4], 10 ng/mL in assay [8], 27 ng/mL in assay [3] and 25 ng/mL in assay [10].
In the case of `CCC(CC)O[C@@H]1C=C(C(=O)O)C[C@H](NC(CC(=O)O)C(=O)O)[C@H]1N` (mixture of isomers) [化合物11P, ((1S,5R,6R)-6-氨基-3-羧基-5-(戊-3-基氧基)环己-3-烯-1-基)-DL-天门冬氨酸], the MIC_A in assay [1] is listed as 22 ng/mL; in [5], 50 ng/mL; in assay [2], 17 ng/mL; in assay [3], 7 ng/mL; in [10], 22 ng/mL.
`CCOC(=O)C1=C[C@@H](OC(CC)CC)[C@H](N)[C@@H](NC(CC(=O)O)C(=O)O)C1` (mixture of isomers) [化合物12P, ((1S,5R,6R)-6-氨基-3-(乙氧基羰基)-5-(戊-3-基氧基)环己-3-烯-1-基)-DL-天门冬氨酸]: the MIC_A in assay [9] is given as 30 ng/mL; in assay [7], 47 ng/mL; in assay [6] it was 25 ng/mL.
`CCOC(=O)C1=C[C@@H](OC(C)C)[C@H](NC(C)=O)[C@@H](N)C1` [化合物20S, 乙基(3R,4R,5S)-4-乙酰氨基-5-氨基-3-异丙氧基环己-1-烯-1-羧酸酯]: the MIC_A is reported as 1079 ng/mL in [5], 771 ng/mL in assay [8] and 704 ng/mL in assay [3].
